According to ChEMBL document CHEMBL3804811 (J Med Chem, 2016):

Assays:
[1] = Apparent permeability from basolateral to apical side in human Caco2 cells at 2.5 mg/ml after 2 hrs by reversed-phase HPLC method; type: ADME, cell-based; settings: Caco-2
[2] = Cmax in Harlan nu/nu mouse at 10 mg/kg, iv administered as single dose by LC-MS/MS analysis; type: ADME, organism-based; set-up: dose 10 mg/kg, route intravenous; settings: in vivo
[3] = Clearance in Harlan nu/nu mouse at 10 mg/kg, iv administered as single dose by LC-MS/MS analysis; type: ADME, organism-based; settings: in vivo
[4] = Cmax in Harlan nu/nu mouse at 10 mg/kg, po administered as single dose by LC-MS/MS analysis; type: ADME, organism-based; set-up: dose 10 mg/kg, route oral; settings: in vivo
[5] = Tmax in Harlan nu/nu mouse at 10 mg/kg, po administered as single dose by LC-MS/MS analysis; type: ADME, organism-based; settings: in vivo
[6] = Oral bioavailability in Harlan nu/nu mouse at 10 mg/kg administered as single dose by LC-MS/MS analysis; type: ADME, organism-based; settings: in vivo
[7] = AUC (infinity) in Sprague-Dawley rat at 10 mg/kg, iv administered as single dose by LC-MS/MS analysis; type: ADME, organism-based; set-up: dose 10 mg/kg, time infinity, route intravenous; settings: in vivo
[8] = AUC (infinity) in Sprague-Dawley rat at 10 mg/kg, po administered as single dose by LC-MS/MS analysis; type: ADME, organism-based; set-up: dose 10 mg/kg, time infinity, route oral; settings: in vivo
[9] = Half life in Beagle dog at 10 mg/kg, iv administered as single dose by LC-MS/MS analysis; type: ADME, organism-based, Canis lupus familiaris; settings: in vivo
[10] = Cmax in Beagle dog at 10 mg/kg, po administered as single dose by LC-MS/MS analysis; type: ADME, organism-based, Canis lupus familiaris; set-up: dose 10 mg/kg, route oral; settings: in vivo
[11] = Tmax in Beagle dog at 10 mg/kg, po administered as single dose by LC-MS/MS analysis; type: ADME, organism-based, Canis lupus familiaris; settings: in vivo
[12] = AUC (infinity) in Beagle dog at 10 mg/kg, po administered as single dose by LC-MS/MS analysis; type: ADME, organism-based, Canis lupus familiaris; set-up: dose 10 mg/kg, time infinity, route oral; settings: in vivo
[13] = Half life in Beagle dog at 10 mg/kg, po administered as single dose by LC-MS/MS analysis; type: ADME, organism-based, Canis lupus familiaris; settings: in vivo
[14] = tested on: KM12; assay: Antiproliferative activity against human KM12 cells expressing TRKA protein incubated for 72 hrs by cell titer-glo assay; settings: KM12, 72 h
[15] = Antiproliferative activity against human SU-DHL1 cells expressing ALK protein incubated for 72 hrs by cell titer-glo assay; type: functional, cell-based; settings: SU-DHL-1, 72 h
[16] = molecular target: T1, Tyrosine-protein kinase JAK3 (Homo sapiens, UniProt P52333); assay: Inhibition of JAK3 (unknown origin) in presence of gamma33-ATP
T1 sequence (P52333 whole entry): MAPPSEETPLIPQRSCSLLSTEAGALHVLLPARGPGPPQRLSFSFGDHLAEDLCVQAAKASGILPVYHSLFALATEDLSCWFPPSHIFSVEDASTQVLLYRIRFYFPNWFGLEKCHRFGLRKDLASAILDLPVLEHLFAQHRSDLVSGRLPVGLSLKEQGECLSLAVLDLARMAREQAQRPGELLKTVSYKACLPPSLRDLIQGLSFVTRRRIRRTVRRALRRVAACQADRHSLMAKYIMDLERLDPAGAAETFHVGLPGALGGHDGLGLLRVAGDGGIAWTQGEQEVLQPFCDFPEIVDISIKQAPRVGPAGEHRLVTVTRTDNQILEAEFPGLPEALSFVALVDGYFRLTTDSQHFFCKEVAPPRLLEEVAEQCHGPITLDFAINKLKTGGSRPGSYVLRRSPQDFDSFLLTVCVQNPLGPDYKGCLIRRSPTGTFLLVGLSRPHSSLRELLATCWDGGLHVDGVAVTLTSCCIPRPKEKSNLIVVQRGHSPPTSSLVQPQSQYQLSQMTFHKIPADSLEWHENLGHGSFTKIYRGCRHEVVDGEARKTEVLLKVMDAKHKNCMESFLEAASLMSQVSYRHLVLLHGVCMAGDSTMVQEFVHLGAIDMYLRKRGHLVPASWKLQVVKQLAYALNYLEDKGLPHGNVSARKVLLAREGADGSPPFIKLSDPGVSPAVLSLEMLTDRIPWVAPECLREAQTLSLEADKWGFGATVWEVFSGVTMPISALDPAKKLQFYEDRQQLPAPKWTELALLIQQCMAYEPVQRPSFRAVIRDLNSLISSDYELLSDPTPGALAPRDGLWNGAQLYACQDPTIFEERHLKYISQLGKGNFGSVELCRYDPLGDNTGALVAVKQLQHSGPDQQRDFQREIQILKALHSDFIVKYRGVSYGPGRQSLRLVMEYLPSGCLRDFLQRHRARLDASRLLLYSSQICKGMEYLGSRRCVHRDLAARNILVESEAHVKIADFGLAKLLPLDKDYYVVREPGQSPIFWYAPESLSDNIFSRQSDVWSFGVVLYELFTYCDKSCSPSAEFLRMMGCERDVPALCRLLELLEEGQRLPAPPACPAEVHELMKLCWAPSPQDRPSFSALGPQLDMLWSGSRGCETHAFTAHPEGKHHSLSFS

[17] = molecular target: Vascular endothelial growth factor receptor 2 (Homo sapiens, UniProt P35968); assay: Inhibition of VEGFR2 (unknown origin) in presence of gamma33-ATP
[18] = molecular target: Serine/threonine-protein kinase Nek6 (Homo sapiens, UniProt Q9HC98); assay: Inhibition of NEK6 (unknown origin) in presence of gamma33-ATP
[19] = Inhibition of SULU1 (unknown origin) in presence of gamma33-ATP; set-up: species or system Homo sapiens
[20] = molecular target: T2, Tyrosine-protein kinase ZAP-70 (Homo sapiens, UniProt P43403); assay: Inhibition of ZAP70 (unknown origin) in presence of gamma33-ATP
T2 sequence (P43403 whole entry): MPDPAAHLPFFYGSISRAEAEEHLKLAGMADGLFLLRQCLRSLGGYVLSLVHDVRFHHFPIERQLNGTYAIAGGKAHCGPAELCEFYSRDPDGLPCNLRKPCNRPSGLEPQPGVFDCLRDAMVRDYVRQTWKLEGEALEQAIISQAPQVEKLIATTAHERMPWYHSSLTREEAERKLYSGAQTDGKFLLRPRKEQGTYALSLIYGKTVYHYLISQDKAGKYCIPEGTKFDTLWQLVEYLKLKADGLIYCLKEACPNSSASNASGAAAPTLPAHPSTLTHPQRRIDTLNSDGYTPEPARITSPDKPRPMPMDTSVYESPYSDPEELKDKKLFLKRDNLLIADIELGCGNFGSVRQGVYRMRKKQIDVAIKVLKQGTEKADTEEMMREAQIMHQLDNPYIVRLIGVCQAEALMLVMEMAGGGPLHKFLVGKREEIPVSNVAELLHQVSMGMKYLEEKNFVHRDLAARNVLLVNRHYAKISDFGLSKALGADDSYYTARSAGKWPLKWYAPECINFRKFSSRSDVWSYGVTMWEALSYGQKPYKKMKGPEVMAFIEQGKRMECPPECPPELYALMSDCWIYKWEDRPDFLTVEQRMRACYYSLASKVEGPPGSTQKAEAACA

[21] = tested on: Mus musculus; assay: Toxicity in SCID mouse xenografted with human KARPAS299 cells assessed as body weight loss at 30 to 60 mg/kg, po bid administered for 10 days; type: organism-based, KARPAS-299; settings: in vivo, 240 h

Serine/threonine-protein kinase Nek6, sequence (Q9HC98 whole entry): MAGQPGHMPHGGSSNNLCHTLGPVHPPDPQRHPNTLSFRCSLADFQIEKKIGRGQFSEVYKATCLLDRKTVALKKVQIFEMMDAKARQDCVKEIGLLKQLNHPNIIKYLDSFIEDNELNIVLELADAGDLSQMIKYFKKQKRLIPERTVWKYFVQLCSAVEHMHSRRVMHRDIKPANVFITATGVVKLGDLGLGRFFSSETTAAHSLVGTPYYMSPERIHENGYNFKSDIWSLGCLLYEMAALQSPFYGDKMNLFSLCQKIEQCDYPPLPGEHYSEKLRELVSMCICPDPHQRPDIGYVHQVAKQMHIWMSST
Vascular endothelial growth factor receptor 2, sequence (P35968 whole entry): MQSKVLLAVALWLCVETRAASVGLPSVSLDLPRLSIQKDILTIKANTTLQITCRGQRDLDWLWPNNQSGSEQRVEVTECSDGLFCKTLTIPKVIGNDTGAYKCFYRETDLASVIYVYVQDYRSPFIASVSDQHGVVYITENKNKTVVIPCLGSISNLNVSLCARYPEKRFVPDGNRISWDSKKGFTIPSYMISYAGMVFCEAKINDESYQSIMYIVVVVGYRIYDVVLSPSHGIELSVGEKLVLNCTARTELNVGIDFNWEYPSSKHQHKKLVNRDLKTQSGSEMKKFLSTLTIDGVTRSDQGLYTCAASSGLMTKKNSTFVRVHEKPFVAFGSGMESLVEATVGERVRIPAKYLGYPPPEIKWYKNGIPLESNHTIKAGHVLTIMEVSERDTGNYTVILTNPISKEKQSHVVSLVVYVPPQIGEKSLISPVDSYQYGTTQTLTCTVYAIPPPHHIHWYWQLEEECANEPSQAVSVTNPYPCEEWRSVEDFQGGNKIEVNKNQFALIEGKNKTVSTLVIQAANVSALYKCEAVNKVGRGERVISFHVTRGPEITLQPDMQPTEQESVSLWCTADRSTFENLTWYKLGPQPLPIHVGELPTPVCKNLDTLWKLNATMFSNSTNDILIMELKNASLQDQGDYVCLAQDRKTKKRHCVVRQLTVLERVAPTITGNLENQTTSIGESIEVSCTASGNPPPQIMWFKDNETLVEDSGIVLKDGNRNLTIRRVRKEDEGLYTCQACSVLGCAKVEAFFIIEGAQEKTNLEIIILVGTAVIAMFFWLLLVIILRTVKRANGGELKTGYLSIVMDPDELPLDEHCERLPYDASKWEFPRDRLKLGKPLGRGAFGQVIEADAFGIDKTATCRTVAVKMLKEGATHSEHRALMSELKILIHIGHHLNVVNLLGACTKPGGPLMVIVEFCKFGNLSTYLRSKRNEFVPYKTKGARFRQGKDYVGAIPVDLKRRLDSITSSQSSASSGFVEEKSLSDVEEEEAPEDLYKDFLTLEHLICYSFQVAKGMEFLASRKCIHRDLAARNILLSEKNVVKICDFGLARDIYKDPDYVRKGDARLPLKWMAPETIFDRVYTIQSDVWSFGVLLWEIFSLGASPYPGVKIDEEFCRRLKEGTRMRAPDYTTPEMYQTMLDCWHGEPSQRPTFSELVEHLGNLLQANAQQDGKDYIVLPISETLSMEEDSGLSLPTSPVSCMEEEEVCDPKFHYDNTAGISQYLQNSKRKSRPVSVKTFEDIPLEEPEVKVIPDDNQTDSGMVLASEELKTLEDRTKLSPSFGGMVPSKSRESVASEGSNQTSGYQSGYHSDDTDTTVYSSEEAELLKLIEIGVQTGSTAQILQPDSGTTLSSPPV

## CN1CCN(c2ccc(C(=O)Nc3n[nH]c4ccc(Cc5cc(F)cc(F)c5)cc34)c(NC3CCOCC3)c2)CC1 [ENTRECTINIB]
[1]
  Papp B→A at 2 h, 2.5 mg/ml: 3 ×10⁻⁶ cm/s
[2]
  Cmax: 4900 nM
[3]
  clearance: 13.5 mL/min/kg
[4]
  Cmax: 1330 nM
[5]
  Tmax: 2.5 h
[6]
  bioavailability: 77%
[7]
  AUC(0-inf): 15.1 µM·h
[8]
  AUC(0-inf): 5.13 µM·h
[9]
  half-life: 11.9 h
[10]
  Cmax: 600 nM
[11]
  Tmax: 2 h
[12]
  AUC(0-inf): 5.7 µM·h
[13]
  half-life: 15.2 h
[14]
  IC50: 17 nM
[15]
  IC50: 24 nM
[16]
  IC50: 349 nM
[17]
  IC50: > 1000 nM
[18]
  IC50: > 10000 nM
[19]
  IC50: > 10000 nM
[20]
  IC50: > 10000 nM
[21]
  Activity: Non-toxic
